9 compounds from EP4782453A1 (Beyang Therapeutics Co., Ltd., priority 2023, dated 2025) can be followed below.

Read-outs that look alike come from different tables or passages of the source.

One experiment concerns KG-1a (wild-type MLL). The experiment can be described thus: Inhibition of proliferation of human tumor cells (Alamar Blue, 7 days), KG-1a control cell line. Type of experiment: cell-based. Particulars: 168 h, KG-1a cells (wild-type MLL, control cell line), method calls the value GI50. From the text: Experimental Example 2: Evaluation of Inhibitory Activity of Compounds Against Proliferation of Human Tumor Cells
• Human acute lymphoblastic leukemia cells MV-4-11, purchased from American Type Culture Collection, Catalog Number: CRL-9591; • Human acute myeloid leukemia cells MOLM-13, purchased from COBIOER BIOSCIENCES CO., LTD, Catalog Number: CBP60678; • Human acute myeloid leukemia cells KG-1a, purchased from American Type Culture Collection, Catalog Number: CCL-246.1; • Inverted Microscope, purchased from Olympus Tokyo; • Countess™ Automated Cell Counter, purchased from Invitrogen, Model: C10281; and • Multilabel Reader, purchased from Bio-Tek, Model: Synergy HT.
MV-4-11 cells were cultured in an IMDM medium containing 10% fetal bovine serum, KG-a cells were cultured in an IMDM medium containing 20% fetal bovine serum, or MOLM-13 cells were cultured in an RPMI-1640 medium containing 20% fetal bovine serum, each supplemented with 100 U·mL^-1 penicillin and 100 µg·mL^-1 streptomycin. These cells were cultured at 37°C with 5% CO2. The suspensions of individual cell lines were prepared in their respective media and seeded into 96-well plates at a density of 4,000 cells/well for MV-4-11 and MOLM-13 cells, or 3,000 cells/well for KG-1a cells. On the day of the experiment, a compound stock solution was diluted in a 3-fold or 4-fold gradient using DMSO. Each gradient-diluted stock solution was then further diluted 250-fold with a complete medium to prepare a series of working solutions at different concentrations. Subsequently, 100 µL of working solution (containing a 2-fold concentration series of the test compound) was added to each well, with duplicate wells set up for each concentration.
Seven days after compound addition (on Day 7), an Alamar Blue assay reagent (MCE, HY-111391 / CS-0040317) was added to measure the fluorescence intensity in each well. Wells containing the cells in the growth medium supplemented with 0.1% DMSO (Day 7) served as high-read control wells. The readouts from the wells containing the cells in the growth medium supplemented with 0.1% DMSO on the day of compound addition (Day 0) served as low-reading control well. GraphPad Prism software was used to calculate the concentration required to inhibit 50% of cell proliferation (GI50), which serves as a cell proliferation inhibition activity index.

Experiment [1] concerns MV-4-11 (carrying MLL-AF4). As to the kind of experiment: Inhibition of proliferation of human tumor cells (Alamar Blue, 7 days), MV-4-11. Type of experiment: cell-based. The following applies: Homo sapiens, MV4-11, 168 h, MV-4-11 cells (carrying MLL-AF4), method calls the value GI50. Summed up: (§1)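 Cells seeded at 4,000/well (MV-4-11, MOLM-13) or 3,000/well (KG-1a), treated in duplicate with serial compound dilutions for 7 days at 37°C, 5% CO2. Alamar Blue fluorescence read on Day 7, normalised to 0.1% DMSO Day-7 (high) and Day-0 (low) controls; GI50 derived.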
On the technique in general: The colour change of resazurin is a common sign of viable cells or microbes.

Experiment [2] concerns MOLM-13 (carrying MLL-AF9). The experiment can be described thus: Inhibition of proliferation of human tumor cells (Alamar Blue, 7 days), MOLM-13. Particulars: Homo sapiens, MOLM-13 cells (carrying MLL-AF9), method calls the value GI50. The experiment is classed as cell-based. Summed up:
as §1

A further experiment has as its target T1, Menin-MLL (Homo sapiens, UniProt O00255).
T1 construct: His-Menin (M1-L615 end); purchased BIORTUS BP9210
T1 sequence (O00255 1-615 isoform O00255-1): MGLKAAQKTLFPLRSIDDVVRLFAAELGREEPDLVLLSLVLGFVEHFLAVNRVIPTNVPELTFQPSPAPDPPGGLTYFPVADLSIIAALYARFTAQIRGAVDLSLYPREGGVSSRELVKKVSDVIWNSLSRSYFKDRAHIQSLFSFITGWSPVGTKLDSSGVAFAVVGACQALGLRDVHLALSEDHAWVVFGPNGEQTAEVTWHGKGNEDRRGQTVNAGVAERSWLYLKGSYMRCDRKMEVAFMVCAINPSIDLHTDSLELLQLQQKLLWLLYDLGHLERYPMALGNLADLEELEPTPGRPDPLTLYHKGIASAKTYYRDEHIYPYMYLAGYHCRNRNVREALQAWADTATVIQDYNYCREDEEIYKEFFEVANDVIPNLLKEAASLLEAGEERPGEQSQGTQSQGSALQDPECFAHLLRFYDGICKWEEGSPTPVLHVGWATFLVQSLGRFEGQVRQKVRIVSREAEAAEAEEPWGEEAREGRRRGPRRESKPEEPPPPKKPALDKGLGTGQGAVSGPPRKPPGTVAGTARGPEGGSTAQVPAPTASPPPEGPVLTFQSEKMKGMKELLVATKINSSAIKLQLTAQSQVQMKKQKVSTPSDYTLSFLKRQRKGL
As to the kind of experiment: Inhibitory activity against Menin-MLL binding (fluorescence polarization). Particulars: 150 nM His-Menin, 15 nM FITC-MLL, 25°C for 60 min. Summed up:
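His-Menin (M1-L615, 150 nM) preincubated with compound 15 min at 25 °C in HEPES pH 7.5, 50 mM NaCl, 1 mM DTT, 0.01% BSA, then 15 nM FITC-MLL4-43 peptide added for 60 min at 25 °C. Fluorescence polarization read; IC50 from 4-parameter logistic fit, duplicates.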
(Fluorescence polarisation rises when a labelled molecule tumbles more slowly, as on binding a larger partner.)

Where [3] appears, read: Menin-MLL IC50, fluorescence polarization.
Setting [4] is: fluorescence polarization, read-out: Menin-MLL IC50.

`CCS(=O)(=O)N[C@H]1CC[C@H](CN2CC(c3cc(-c4ccc(F)cc4C(=O)N4CCOC[C@H]4C)c4c(F)nc(C)n4c3)C2)CC1` [Example 145, N-[(1r,4r)-4-{[3-(1-fluoro-8-{4-fluoro-2-[(3R)-3-methylmorpholin-4-carbonyl]phenyl}-3-methylimidazo[1,5-a]pyridin-6-yl)azacyclobutan-1-yl]methyl}cyclohexyl]ethan-1-sulfonamide]: the IC50 with KG-1a (wild-type MLL) is 19 µM; in experiment [1], 13 nM; in experiment [2] (MOLM-13, 168 h), 29.5 nM; on Menin-MLL (setting [3]), 18 nM.

As to `CCN(C(=O)c1cc(F)ccc1-c1cc(C2CN(CC3CCN(C(C)=O)CC3)C2)cn2c(C)ncc12)C(C)C` [Example 289, 2-(6-{1-[(1-acetylpiperidin-4-yl)methyl]azacyclobutan-3-yl}-3-methylimidazo[1,5-a]pyridin-8-yl)-N-ethyl-5-fluoro-N-(isopropyl)benzamide], the IC50 in the experiment with KG-1a (wild-type MLL) amounted to 20 µM; in experiment [1], 11 nM; in experiment [2] (168 h) it was 45 nM; on Menin-MLL (setting [4]), 10 nM.

`Cc1cncc2c(-c3ccc(F)cc3C(=O)N(CC(F)F)C(C)C)cc(CC3CN(CC4CCOCC4)C3)n12` [Example 206, N-(2,2-difluoroethyl)-5-fluoro-2-[4-methyl-6-({1-[(oxacyclohexan-4-yl)methyl]azacyclobutan-3-yl}methyl)pyrrolo[1,2-a]pyrazin-8-yl]-N-(isopropyl)benzamide]: the IC50 in the experiment with KG-1a (wild-type MLL) was found to be 20 µM; in experiment [1] it was 3.5 nM; in experiment [2] (168 h), 15 nM; at Menin-MLL (setting [4]), 3.5 nM.

Take `COCC1CN(CCC[C@H](C(C)C)N2CC(c3cc(-c4ccc(F)cc4C(=O)N4CCOC[C@H]4C)c4cnn(C)c4c3)C2)C1` [Example 183-2]: the IC50 amounted to 11 µM with KG-1a (wild-type MLL), 7.9 nM in experiment [1], 39 nM in experiment [2] (168 h) and 11.7 nM at Menin-MLL (setting [4]).

For the compound `CCS(=O)(=O)N[C@H]1CC[C@H](CN2CC(c3cc(-c4ccc(F)cc4C(=O)N4[C@H](C)COC[C@H]4C)c4cnn(C)c4c3)C2)CC1` [Example 168], the IC50 in the experiment with KG-1a (wild-type MLL) came to 20 µM; in experiment [1] it was 32 nM; in experiment [2] (MOLM-13, 168 h), 104 nM; at Menin-MLL (setting [3]), 32.5 nM.

Take `CCN(C(=O)c1cc(F)ccc1-c1cc([C@H]2CC[C@@H](NCc3ccc(-c4cc(OC)c(OC)nn4)cc3)CC2)cn2cncc12)C(C)C` [Example 18-1, N-ethyl-5-fluoro-N-(isopropyl)-2-{6-[(1s,4s)-4-({[4-(5,6-dimethoxypyridazin-3-yl)phenyl]methyl}amino)cyclohexyl]imidazo[1,5-a]pyridin-8-yl}benzamide]: the IC50 with KG-1a (wild-type MLL) came out at 9.7 µM; in experiment [1] it was 18 nM; in experiment [2] (MOLM-13, 168 h), 61 nM; at Menin-MLL (setting [3]), 6 nM.

For the compound `Cc1nc(F)c2c(-c3ccc(F)cc3C(=O)N3CCOC[C@H]3C)cc(C3CN([C@H](CC[C@H]4CNCCO4)C(C)C)C3)cn12` [Example 244-1, (3R)-4-[5-fluoro-2-(1-fluoro-3-methyl-6-{1-[(3R)-4-methyl-1-[(2S)-morpholin-2-yl]pentan-3-yl]azacyclobutan-3-yl}imidazo[1,5-a]pyridin-8yl)benzoyl]-3-methylmorpholine], the IC50 is 20 µM with KG-1a (wild-type MLL), 16 nM in experiment [1], 39 nM in experiment [2] (168 h) and 9.5 nM on Menin-MLL (setting [4]).

On to `CCN(C(=O)c1cc(F)ccc1-c1cc(C2CN(C(=O)C3NC4CCC3CC4)C2)cn2c(C)ncc12)C(C)C` [Example 90, N-ethyl-5-fluoro-2-(3-methyl-6-{1-[(1R,3S,4S)-2-azabicyclo[2.2.2]octan-3-carbonyl]azacyclobutan-3-yl}imidazo[1,5-a]pyridin-8-yl)-N-(isopropyl)benzamide], for which the IC50 in the experiment on KG-1a (wild-type MLL) was 20 µM; in experiment [1], 20 nM; in experiment [2] (MOLM-13, 168 h) it was 99 nM; on Menin-MLL (setting [3]), 11 nM.

As to `CCN(C(=O)c1cc(F)ccc1-c1cc(C2CCN(CCc3ccc(-c4cc(OC)c(OC)nn4)cc3)CC2)cn2cncc12)C(C)C` [Compound 42, 2-[6-(1-{2-[4-(5,6-dimethoxypyridazin-3-yl)phenyl]ethyl}piperidin-4-yl)imidazo[1,5-a]pyridin-8-yl]-N-ethyl-5-fluoro-N-(isopropyl)benzamide], the IC50 in the experiment on KG-1a (wild-type MLL) turned out to be 3.3 µM; in experiment [1], 3.3 nM; in experiment [2] (168 h), 26 nM; at Menin-MLL (setting [4]) it was 3.5 nM.

What is called IC50 is the concentration that inhibits the measured activity by half.
